# Measured values reported in US20250215029A1 (Recludix Pharma, Inc., priority 2022, published 2025).
# Columns and labels:
# [1] = molecular target: T1, Recombinant STAT6 protein (STAT6 (W123-T658)) (Homo sapiens, UniProt P42226); test: STAT6 Fluorescence Polarization (FP) Assay; format: binding; conditions: STAT6 250 nM, probe 5-FAM-Ap[…]-NH2 2 nM, 45-minute incubation; read-out: STAT6 (FP assay IC50)
# T1 construct: Recombinant STAT6 protein (STAT6 (W123-T658))
# T1 sequence (P42226 123-658): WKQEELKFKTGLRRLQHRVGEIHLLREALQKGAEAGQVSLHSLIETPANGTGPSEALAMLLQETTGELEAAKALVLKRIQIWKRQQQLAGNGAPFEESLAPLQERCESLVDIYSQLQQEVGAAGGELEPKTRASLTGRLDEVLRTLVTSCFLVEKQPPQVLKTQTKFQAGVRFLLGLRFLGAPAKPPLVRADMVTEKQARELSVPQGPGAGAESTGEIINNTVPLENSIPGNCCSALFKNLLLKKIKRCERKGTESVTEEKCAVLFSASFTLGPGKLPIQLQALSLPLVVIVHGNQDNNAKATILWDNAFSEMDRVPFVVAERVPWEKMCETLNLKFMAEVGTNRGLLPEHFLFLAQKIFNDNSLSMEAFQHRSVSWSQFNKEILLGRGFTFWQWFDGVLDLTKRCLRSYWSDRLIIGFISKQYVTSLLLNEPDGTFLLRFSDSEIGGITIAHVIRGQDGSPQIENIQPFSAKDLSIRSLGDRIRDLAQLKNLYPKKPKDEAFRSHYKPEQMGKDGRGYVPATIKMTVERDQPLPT
# How it was run: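 Competitive FP binding: recombinant STAT6 (W123-T658) at 250 nM, labeled phosphotyrosine peptide at 2 nM, compounds at 1% DMSO, 45 min at RT before reading. IC50 values were obtained from nonlinear regression of mP versus log concentration.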
# [2] = molecular target: T2, Recombinant STAT3 protein (STAT3 (G127-I722)) (Homo sapiens, UniProt P40763); test: STAT3 Fluorescence Polarization (FP) Assay; format: binding; conditions: STAT3 25 nM, probe 5-FAM-GpYLPQTV-NH2 2 nM, 45-minute incubation; read-out: STAT3 (FP assay IC50)
# T2 construct: Recombinant STAT3 protein (STAT3 (G127-I722))
# How it was run: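 Displacement of a fluorescent phosphotyrosine peptide (5-FAM-GpYLPQTV-NH2, 2 nM) from 25 nM recombinant STAT3 G127-I722 was monitored by FP after 45 min at room temperature.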
# T2 sequence (P40763 127-722): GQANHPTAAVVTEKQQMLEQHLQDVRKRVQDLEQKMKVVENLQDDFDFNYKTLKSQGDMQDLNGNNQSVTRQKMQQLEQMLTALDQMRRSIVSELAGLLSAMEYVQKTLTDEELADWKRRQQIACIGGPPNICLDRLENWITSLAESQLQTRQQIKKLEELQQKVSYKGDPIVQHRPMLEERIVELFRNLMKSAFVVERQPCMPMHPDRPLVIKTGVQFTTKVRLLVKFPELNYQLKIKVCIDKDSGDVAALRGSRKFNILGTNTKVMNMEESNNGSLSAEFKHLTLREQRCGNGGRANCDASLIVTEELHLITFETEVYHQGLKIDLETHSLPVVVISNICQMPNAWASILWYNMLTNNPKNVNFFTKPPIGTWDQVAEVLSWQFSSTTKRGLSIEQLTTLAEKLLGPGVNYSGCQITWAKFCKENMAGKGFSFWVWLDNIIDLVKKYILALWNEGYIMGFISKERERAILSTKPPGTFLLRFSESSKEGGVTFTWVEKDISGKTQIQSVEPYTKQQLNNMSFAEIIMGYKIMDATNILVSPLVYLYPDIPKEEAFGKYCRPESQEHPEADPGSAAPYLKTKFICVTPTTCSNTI
Structure (SMILES),IC50 [1] [nM],IC50 [2] [nM]
"O=C(N[C@H]1CCC[C@H]2CC[C@@H](C(=O)N3CC(C(=O)N4CCOCC4)C3)N2C1=O)c1cc2cc(C(F)(F)P(=O)(O)O)ccc2s1 [Compound 94, (difluoro(2-(((3S,6S,9aS)-3-(3-(morpholine-4-carbonyl)azetidine-1-carbonyl)-5-oxooctahydro-1H-pyrrolo[1,2-a]azepin-6-yl)carbamoyl)benzo[b]thiophen-5-yl)methyl) phosphonic acid]",3000 to 30000,100 to 1000
"O=C(N[C@H]1C=CC[C@H]2CC[C@@H](C(=O)Nc3ccc(-c4ccccc4)cc3)N2C1=O)c1cc2cc(C(F)(F)P(=O)(O)O)ccc2s1 [Compound 97, ((2-(((3S,6S,9aR)-3-([1,1′-biphenyl]-4-ylcarbamoyl)-5-oxo-2,3,5,6,9,9a-hexahydro-1H-pyrrolo[1,2-a]azepin-6-yl)carbamoyl)benzo[b]thiophen-5-yl)difluoromethyl) phosphonic acid]",300 to 3000,100 to 1000
"C[C@@H]1C[C@H](NC(=O)c2cc3cc(C(F)(F)P(=O)(O)O)ccc3s2)C(=O)N2[C@H](CC[C@H]2C(=O)N2CC[C@@H](c3ccccc3)C2)C[C@H]1O [Compound 100, (difluoro(2-(((3S,6S,8R,9R, 10aR)-9-hydroxy-8-methyl-5-oxo-3-((S)-3-phenylpyrrolidine-1-carbonyl)decahydropyrrolo [1,2-a]azocin-6-yl)carbamoyl)benzo[b]thiophen-5-yl)methyl) phosphonic acid]",≤ 300,1000 to 10000
"CC1CCC[C@H](NC(=O)c2cc3cc(C(F)(F)P(=O)(O)O)ccc3s2)C(=O)N2[C@@H]1CC[C@H]2C(=O)N1CC(c2cccnc2)C1 (stereo partly drawn) [Compound 103, (difluoro(2-(((3S,6S,10aR)-10-methyl-5-oxo-3-(3-(pyridin-3-yl)azetidine-1-carbonyl)decahydropyrrolo [1,2-a]azocin-6-yl)carbamoyl)benzo[b]thiophen-5-yl)methyl) phosphonic acid]",3000 to 30000,< 100
"CN(C(=O)[C@@H]1CC[C@@H]2CCC[C@H](NC(=O)c3cc4cc(C(F)(F)P(=O)(O)O)ccc4s3)C(=O)N21)c1ccccc1 [Compound 111, (Difluoro(2-(((3S,6S,9aS)-3-(methyl(phenyl)carbamoyl)-5-oxooctahydro-1H-pyrrolo[1,2-a]azepin-6-yl)carbamoyl)benzo[b]thiophen-5-yl)methyl)phosphonic acid]",300 to 3000,1000 to 10000
"O=C(N[C@H]1CCC2(CC2)C[C@H]2CC[C@@H](C(=O)N3CC(C(=O)N4CCOCC4)C3)N2C1=O)c1cc2cc(C(F)(F)P(=O)(O)O)ccc2s1 [Compound 114, (difluoro(2-(((3′S,6′S, 10aR)-3′-(3-(morpholine-4-carbonyl)azetidine-1-carbonyl)-5′-oxooctahydro-1′H-spiro [cyclopropane-1,9′-pyrrolo[1,2-a]azocin]-6′-yl)carbamoyl)benzo[b]thiophen-5-yl)methyl) phosphonic acid]",3000 to 30000,< 100
"CC(=O)N1C[C@H](NC(=O)[C@@H]2CC[C@@H]3CCCC[C@H](NC(=O)c4cc5cc(C(F)(F)P(=O)(O)O)ccc5s4)C(=O)N32)[C@@H](O)C1 [Compound 116, ((2-(((3S, 6S,10aS)-3-(((3S,4S)-1-acetyl-4-hydroxypyrrolidin-3-yl)carbamoyl)-5-oxodecahydro-pyrrolo [1,2-a]azocin-6-yl)carbamoyl)benzo[b]thiophen-5-yl)difluoromethyl) phosphonic acid]",300 to 3000,100 to 1000
"O=C(N[C@H]1CCCC[C@H]2CC[C@@H](C(=O)N3CC(C4CCOCC4)C3)N2C1=O)c1cc2cc(C(F)(F)P(=O)(O)O)ccc2s1 [Compound 118A, (difluoro(2-(((3S,6S,10a S)-5-oxo-3-(3-(tetrahydro-2H-pyran-4-yl)azetidine-1-carbonyl)decahydropyrrolo-[1,2a]azocin-6-yl)carbamoyl)benzo[b]thiophen-5-yl)methyl) phosphonic acid]",3000 to 30000,100 to 1000
"O=C(N[C@H]1CCCC[C@H]2CC[C@@H](C(=O)N3CCN(C(=O)c4cn[nH]c4)CC3)N2C1=O)c1cc2cc(C(F)(F)P(=O)(O)O)ccc2s1 [Compound 118B, ((2-(((3S,6S,10a S)-3-(4-(1H-pyrazole-4-carbonyl)piperazine-1-carbonyl)-5-oxodecahydro-pyrrolo [1,2-a]azocin-6-yl)carbamoyl)benzo[b]thiophen-5-yl)difluoromethyl) phosphonic acid]",300 to 3000,100 to 1000
"O=C(N[C@H]1CCC[C@H]2CC[C@@H](C(=O)N3CC(C4CCOCC4)C3)N2C1=O)c1cc2cc(C(F)(F)P(=O)(O)O)ccc2s1 [Compound 119, (difluoro(2-(((3S,6S,9aS)-5-oxo-3-(3-(tetrahydro-2H-pyran-4-yl)azetidine-1-carbonyl)octahydro-1H-pyrrolo[1,2-a]azepin-6-yl)carbamoyl)benzo[b]thiophen-5-yl)methyl) phosphonic acid]",3000 to 30000,100 to 1000

# The remaining lines, values ahead:
IC50 [1] [nM],IC50 [2] [nM],Structure (SMILES)
3000 to 30000,100 to 1000,"O=C(N[C@H]1CCCC[C@H]2CC[C@@H](C(=O)NC(CO)Cc3ccccc3)N2C1=O)c1cc2cc(C(F)(F)P(=O)(O)O)ccc2s1 (stereo partly drawn) [Compound 98, (difluoro(2-(((3S,6S,10aS)-3-((1-hydroxy-3-phenylpropan-2-yl)carbamoyl)-5-oxodecahydropyrrolo [1,2-a]azocin-6-yl)carbamoyl)benzo[b]thiophen-5-yl)methyl) phosphonic acid]"
300 to 3000,< 100,"O=C(N[C@H]1CCC[C@H]2CC[C@@H](C(=O)N3CC(c4ccccn4)C3)N2C1=O)c1cc2cc(C(F)(F)P(=O)(O)O)ccc2s1 [Compound 108, (difluoro(2-(((3S,6S,9aS)-5-oxo-3-(3-(pyridin-2-yl)azetidine-1-carbonyl)octahydro-1H-pyrrolo[1,2-a]azepin-6-yl)carbamoyl)benzo[b]thiophen-5-yl)methyl) phosphonic acid]"
3000 to 30000,100 to 1000,"O=C(N[C@H]1CCCC[C@H]2CC[C@@H](C(=O)N3CC(N4CCOCC4)C3)N2C1=O)c1cc2cc(C(F)(F)P(=O)(O)O)ccc2s1 [Compound 113, (difluoro(2-(((3S,6S, 10aS)-3-(3-morpho-linoazetidine-1-carbonyl)-5-oxodecahydropyrrolo[1,2-a]azocin-6-yl)carbamoyl)benzo[b]thiophen-5-yl)methyl)ph osphonic acid]"
3000 to 30000,< 100,"O=C(N[C@H]1CC2(CC[C@H]3CC[C@@H](C(=O)N4CC(C(=O)N5CCOCC5)C4)N3C1=O)CC2)c1cc2cc(C(F)(F)P(=O)(O)O)ccc2s1 [Compound 115, (difluoro(2-(((3′S,6′S, 10a′S)-3′-(3-(morpholine-4-carbonyl)azetidine-1-carbonyl)-5′-oxooctahydro-5′H-spiro [cyclopropane-1,8′-pyrrolo[1,2-a]azocin]-6′-yl)carbamoyl)benzo[b]thiophen-5-yl)methyl) phosphonic acid]"
3000 to 30000,< 100,"O=C(N[C@H]1CCCC[C@H]2CC[C@@H](C(=O)N3CC(c4cccnc4)C3)N2C1=O)c1cc2cc(C(F)(F)P(=O)(O)O)ccc2s1 [Compound 117, (difluoro(2-(((3S,6S,10aS)-5-oxo-3-(3-(pyridin-3-yl)azetidine-1-carbonyl)decahydropyrrolo [1,2-a]azocin-6-yl)carbamoyl)benzo[b]thiophen-5-yl)methyl) phosphonic acid]"
